# Where “and” joins values, the source holds several entries; their conditions need not be identical. Equal values may be shown once. ± gives the uncertainty stated by the source.
# Assay: xn = mol fraction of the nth substance listed
compound,measurement,setting,value
CCCC[N+]1(C)CCCCC1.N#C[S-] + O,viscosity,"318.15 K, 101 kPa, x2 = 0.3741",57.3 ± 1.1 mPa·s
same,viscosity,"328.15 K, 101 kPa, x2 = 0.2774",59.4 ± 1.4 mPa·s
same,viscosity,"328.15 K, 101 kPa, x2 = 0.3741",37.2 ± 1.2 mPa·s
same,viscosity,"328.15 K, 101 kPa, x2 = 0.6302",13.48 ± 0.42 mPa·s
same,viscosity,"338.15 K, 101 kPa, x2 = 0.2774",39.6 ± 1.3 mPa·s
same,viscosity,"348.15 K, 101 kPa, x2 = 0.5111",11.92 ± 0.37 mPa·s
CCCCCCCC[n+]1ccccc1.F[B-](F)(F)F + O,viscosity,"288.15 K, 101.3 kPa, x2 = 0",447 ± 34 mPa·s
same,viscosity,"288.15 K, 101.3 kPa, x2 = 0.1",289 ± 17 mPa·s
same,viscosity,"288.15 K, 101.3 kPa, x2 = 0.184",192.6 ± 9 mPa·s
same,viscosity,"288.15 K, 101.3 kPa, x2 = 0.324",121.3 ± 3.9 mPa·s
same,viscosity,"288.15 K, 101.3 kPa, x2 = 0.477",89 ± 2 mPa·s
same,viscosity,"288.15 K, 101.3 kPa, x2 = 0.67",50.65 ± 0.78 mPa·s
same,viscosity,"288.15 K, 101.3 kPa, x2 = 0.758",37.8 ± 0.8 mPa·s
same,viscosity,"293.15 K, 101.3 kPa, x2 = 0.1",213 ± 11 mPa·s
same,viscosity,"293.15 K, 101.3 kPa, x2 = 0.184",145.6 ± 5.5 mPa·s
same,viscosity,"293.15 K, 101.3 kPa, x2 = 0.324",94.1 ± 2.2 mPa·s
same,viscosity,"298.15 K, 101.3 kPa, x2 = 0.67",32.69 ± 0.7 mPa·s
same,viscosity,"298.15 K, 101.3 kPa, x2 = 0.758",23.24 ± 0.65 mPa·s
same,viscosity,"308.15 K, 101.3 kPa, x2 = 0",134.8 ± 4.7 mPa·s
same,viscosity,"308.15 K, 101.3 kPa, x2 = 0.783",15.11 ± 0.62 mPa·s
same,viscosity,"313.15 K, 101.3 kPa, x2 = 0.562",19.43 ± 0.63 mPa·s
same,viscosity,"313.15 K, 101.3 kPa, x2 = 0.67",18.67 ± 0.63 mPa·s
same,viscosity,"318.15 K, 101.3 kPa, x2 = 0",81.6 ± 1.6 mPa·s
same,viscosity,"318.15 K, 101.3 kPa, x2 = 0.324",32.19 ± 0.68 mPa·s
same,viscosity,"323.15 K, 101.3 kPa, x2 = 0.324",27.26 ± 0.66 mPa·s
same,viscosity,"328.15 K, 101.3 kPa, x2 = 0.1",38.44 ± 0.72 mPa·s
same,viscosity,"328.15 K, 101.3 kPa, x2 = 0.184",30.98 ± 0.67 mPa·s
same,viscosity,"328.15 K, 101.3 kPa, x2 = 0.758",8.61 ± 0.6 mPa·s
same,viscosity,"333.15 K, 101.3 kPa, x2 = 0",45.28 ± 0.75 mPa·s
same,viscosity,"333.15 K, 101.3 kPa, x2 = 0.1",32.1 ± 0.68 mPa·s
same,viscosity,"333.15 K, 101.3 kPa, x2 = 0.184",26.18 ± 0.65 mPa·s
same,viscosity,"333.15 K, 101.3 kPa, x2 = 0.758",7.63 ± 0.6 mPa·s
same,viscosity,"338.15 K, 101.3 kPa, x2 = 0.67",9.23 ± 0.61 mPa·s
same,viscosity,"343.15 K, 101.3 kPa, x2 = 0.324",15.05 ± 0.62 mPa·s
same,viscosity,"343.15 K, 101.3 kPa, x2 = 0.67",7.99 ± 0.6 mPa·s
same,viscosity,"348.15 K, 101.3 kPa, x2 = 0",27.77 ± 0.65 mPa·s
same,viscosity,"348.15 K, 101.3 kPa, x2 = 0.477",10.05 ± 0.61 mPa·s
CC[NH3+].O=[N+]([O-])[O-] + O,viscosity,"288.15 K, 101.33 kPa, x2 = 0.574",5.43 ± 0.12 mPa·s and 7.928 ± 0.084 mPa·s
same,viscosity,"293.15 K, 100 kPa, x2 = 0.1088",20.97 ± 0.47 mPa·s
same,viscosity,"293.15 K, 100 kPa, x2 = 0.3682",7.63 ± 0.17 mPa·s
same,viscosity,"293.15 K, 100 kPa, x2 = 0.47",6.34 ± 0.14 mPa·s
same,viscosity,"293.15 K, 100 kPa, x2 = 0.579",5.03 ± 0.12 mPa·s
same,viscosity,"293.15 K, 101.33 kPa, x2 = 0.574",4.86 ± 0.1 mPa·s and 7.175 ± 0.075 mPa·s
same,viscosity,"298 K, 101 kPa, x2 = 0.7",3.42 ± 0.08 mPa·s
same,viscosity,"298 K, 101 kPa, x2 = 0.95",1.15 ± 0.03 mPa·s
same,viscosity,"298.15 K, 100 kPa, x2 = 0.7889",2.16 ± 0.06 mPa·s
same,viscosity,"298.15 K, 100 kPa, x2 = 0.8895",1.48 ± 0.05 mPa·s
same,viscosity,"298.15 K, 101.33 kPa, x2 = 0.574",4.415 ± 0.095 mPa·s and 6.559 ± 0.068 mPa·s
same,viscosity,"303.15 K, 100 kPa, x2 = 0.1088",15.74 ± 0.36 mPa·s
same,viscosity,"303.15 K, 100 kPa, x2 = 0.2597",7.78 ± 0.18 mPa·s
same,viscosity,"303.15 K, 100 kPa, x2 = 0.7889",1.95 ± 0.06 mPa·s
same,viscosity,"303.15 K, 100 kPa, x2 = 0.8895",1.34 ± 0.05 mPa·s
same,viscosity,"303.15 K, 101.33 kPa, x2 = 0.574",3.953 ± 0.085 mPa·s and 5.989 ± 0.062 mPa·s
same,viscosity,"308.15 K, 100 kPa, x2 = 0.1088",13.76 ± 0.31 mPa·s
same,viscosity,"308.15 K, 100 kPa, x2 = 0.47",4.52 ± 0.11 mPa·s
same,viscosity,"308.15 K, 101.33 kPa, x2 = 0.574",3.571 ± 0.077 mPa·s and 5.567 ± 0.056 mPa·s
same,viscosity,"313.15 K, 100 kPa, x2 = 0",22.67 ± 0.51 mPa·s
same,viscosity,"313.15 K, 100 kPa, x2 = 0.579",3.26 ± 0.08 mPa·s
same,viscosity,"313.15 K, 101.33 kPa, x2 = 0.574",3.247 ± 0.07 mPa·s and 5.268 ± 0.054 mPa·s
same,viscosity,"318.15 K, 100 kPa, x2 = 0.47",3.71 ± 0.09 mPa·s
same,viscosity,"318.15 K, 100 kPa, x2 = 0.7889",1.49 ± 0.05 mPa·s
same,viscosity,"318.15 K, 101.33 kPa, x2 = 0.574",2.96 ± 0.064 mPa·s and 4.826 ± 0.05 mPa·s
same,viscosity,"323.15 K, 101.33 kPa, x2 = 0.574",2.709 ± 0.058 mPa·s and 4.535 ± 0.047 mPa·s
same,viscosity,"328.15 K, 101.33 kPa, x2 = 0.574",2.479 ± 0.054 mPa·s and 4.213 ± 0.043 mPa·s
same,viscosity,"333.15 K, 101.33 kPa, x2 = 0.574",2.281 ± 0.049 mPa·s and 4.065 ± 0.041 mPa·s
same,viscosity,"338.15 K, 101.33 kPa, x2 = 0.574",2.102 ± 0.046 mPa·s and 3.912 ± 0.04 mPa·s
same,viscosity,"343.15 K, 101.33 kPa, x2 = 0.574",1.945 ± 0.042 mPa·s

# — the CheMixHub ionic liquid set
